Measured values as given in ChEMBL document CHEMBL3784933, “Synthesis and antitumor evaluation of trimethoxyanilides based on 4(3H)-quinazolinone scaffolds” (2016).

Assays:
Format in all cases: functional
[1] = Cytotoxicity against human OVCAR3 cells assessed as growth inhibition at 10 uM after 48 hrs by SRB assay; conditions: OVCAR-3, 48 h, read-out: GI
Malme-3M = test: Cytotoxicity against human MALME-3M cells assessed as growth inhibition at 10 uM after 48 hrs by SRB assay; conditions: read-out: GI
SK-MEL-5 = test: Cytotoxicity against human SK-MEL-5 cells assessed as growth inhibition at 10 uM after 48 hrs by SRB assay; conditions: SK-MEL-5, 48 h, read-out: GI
NCI-H226 = test: Cytotoxicity against human NCI-H226 cells assessed as growth inhibition at 10 uM after 48 hrs by SRB assay; conditions: NCI-H226, 48 h, read-out: GI
KM12 = test: Cytotoxicity against human KM12 cells assessed as growth inhibition at 10 uM after 48 hrs by SRB assay; conditions: KM12, 48 h, read-out: GI
SN12C = test: Cytotoxicity against human SN12C cells assessed as growth inhibition at 10 uM after 48 hrs by SRB assay; conditions: read-out: GI
EKVX = test: Cytotoxicity against human EKVX cells assessed as growth inhibition at 10 uM after 48 hrs by SRB assay; conditions: read-out: GI
M14 = test: Cytotoxicity against human M14 cells assessed as growth inhibition at 10 uM after 48 hrs by SRB assay; conditions: M14, 48 h, read-out: GI
[2] = Cytotoxicity against human PC3 cells assessed as growth inhibition at 10 uM after 48 hrs by SRB assay; conditions: PC-3, 48 h, read-out: GI
MCF7 = test: Cytotoxicity against human MCF7 cells assessed as growth inhibition at 10 uM after 48 hrs by SRB assay; conditions: MCF7, 48 h, read-out: GI
NCI-H23 = test: Cytotoxicity against human NCI-H23 cells assessed as growth inhibition at 10 uM after 48 hrs by SRB assay; conditions: NCI-H23, 48 h, read-out: GI
K562 = test: Cytotoxicity against human K562 cells assessed as growth inhibition at 10 uM after 48 hrs by SRB assay; conditions: K562, 48 h, read-out: GI
[3] = Cytotoxicity against human RXF393 cells assessed as growth inhibition at 10 uM after 48 hrs by SRB assay; conditions: RXF 393, 48 h, read-out: GI
[4] = Cytotoxicity against human HCT15 cells assessed as growth inhibition at 10 uM after 48 hrs by SRB assay; conditions: HCT-15, 48 h, read-out: GI
[5] = Cytotoxicity against human LOXIMVI cells assessed as growth inhibition at 10 uM after 48 hrs by SRB assay; conditions: LOX IMVI, read-out: GI
MDA-MB-435 = test: Cytotoxicity against human MDA-MB-435 cells assessed as growth inhibition at 10 uM after 48 hrs by SRB assay; conditions: MDA-MB-435, 48 h, read-out: GI
[6] = Cytotoxicity against human SNB19 cells assessed as growth inhibition at 10 uM after 48 hrs by SRB assay; conditions: SNB-19, 48 h, read-out: GI
[7] = Cytotoxicity against human OVCAR4 cells assessed as growth inhibition at 10 uM after 48 hrs by SRB assay; conditions: OVCAR-4, 48 h, read-out: GI
[8] = Cytotoxicity against human MOLT4 cells assessed as growth inhibition at 10 uM after 48 hrs by SRB assay; conditions: MOLT-4, 48 h, read-out: GI
[9] = Cytotoxicity against human NCI-H322 cells assessed as growth inhibition at 10 uM after 48 hrs by SRB assay; conditions: NCI-H322, 48 h, read-out: GI
[10] = Cytotoxicity against human RPMI8226 cells assessed as growth inhibition at 10 uM after 48 hrs by SRB assay; conditions: RPMI-8226, 48 h, read-out: GI
[11] = Cytotoxicity against human Caki1 cells assessed as growth inhibition at 10 uM after 48 hrs by SRB assay; conditions: CAKI-1, 48 h, read-out: GI
A498 = test: Cytotoxicity against human A498 cells assessed as growth inhibition at 10 uM after 48 hrs by SRB assay; conditions: A498, 48 h, read-out: GI
[12] = Cytotoxicity against human SNB75 cells assessed as growth inhibition at 10 uM after 48 hrs by SRB assay; conditions: SNB-75, 48 h, read-out: GI
786-0 = test: Cytotoxicity against human 786-0 cells assessed as growth inhibition at 10 uM after 48 hrs by SRB assay; conditions: 786-0, 48 h, read-out: GI
A549 = test: Cytotoxicity against human A549 cells assessed as growth inhibition at 10 uM after 48 hrs by SRB assay; conditions: A549, 48 h, read-out: GI
[13] = Cytotoxicity against human OVCAR8 cells assessed as growth inhibition at 10 uM after 48 hrs by SRB assay; conditions: OVCAR-8, 48 h, read-out: GI
[14] = Cytotoxicity against human NCI-ADR-RES cells assessed as growth inhibition at 10 uM after 48 hrs by SRB assay; conditions: read-out: GI
[15] = Cytotoxicity against human SKOV3 cells assessed as growth inhibition at 10 uM after 48 hrs by SRB assay; conditions: SK-OV-3, 48 h, read-out: GI
[16] = Cytotoxicity against human OVCAR5 cells assessed as growth inhibition at 10 uM after 48 hrs by SRB assay; conditions: OVCAR-5, 48 h, read-out: GI
[17] = Cytotoxicity against human IGROV1 cells assessed as growth inhibition at 10 uM after 48 hrs by SRB assay; conditions: IGROV-1, 48 h, read-out: GI
[18] = Cytotoxicity against human Hs 578T cells assessed as growth inhibition at 10 uM after 48 hrs by SRB assay; conditions: read-out: GI
NCI-H522 = test: Cytotoxicity against human NCI-H522 cells assessed as growth inhibition at 10 uM after 48 hrs by SRB assay; conditions: NCI-H522, 48 h, read-out: GI
[19] = Cytotoxicity against human HOP92 cells assessed as growth inhibition at 10 uM after 48 hrs by SRB assay; conditions: HOP-92, 48 h, read-out: GI
[20] = Cytotoxicity against human SF295 cells assessed as growth inhibition at 10 uM after 48 hrs by SRB assay; conditions: SF-295, 48 h, read-out: GI
MDA-MB-231 = test: Cytotoxicity against human MDA-MB-231 cells assessed as growth inhibition at 10 uM after 48 hrs by SRB assay; conditions: MDA-MB-231, 48 h, read-out: GI
[21] = Cytotoxicity against human UACC62 cells assessed as growth inhibition at 10 uM after 48 hrs by SRB assay; conditions: UACC-62, 48 h, read-out: GI
ACHN = test: Cytotoxicity against human ACHN cells assessed as growth inhibition at 10 uM after 48 hrs by SRB assay; conditions: read-out: GI
T47D = test: Cytotoxicity against human T47D cells assessed as growth inhibition at 10 uM after 48 hrs by SRB assay; conditions: read-out: GI
[22] = Cytotoxicity against human HCT116 cells assessed as growth inhibition at 10 uM after 48 hrs by SRB assay; conditions: HCT-116, 48 h, read-out: GI
[23] = Cytotoxicity against human SF268 cells assessed as growth inhibition at 10 uM after 48 hrs by SRB assay; conditions: SF-268, 48 h, read-out: GI
U-251 = test: Cytotoxicity against human U251 cells assessed as growth inhibition at 10 uM after 48 hrs by SRB assay; conditions: U-251, 48 h, read-out: GI
[24] = Cytotoxicity against human UO31 cells assessed as growth inhibition at 10 uM after 48 hrs by SRB assay; conditions: UO-31, 48 h, read-out: GI

COc1cc(NC(=O)CSc2nc3ccc(Cl)cc3c(=O)n2-c2ccc(F)cc2)cc(OC)c1OC showed an inhibition of growth at 10 µM [1] of 20%, an inhibition of growth at 10 µM (Malme-3M) of 15% and an inhibition of growth at 10 µM (SK-MEL-5) of 27%. For the same compound, the inhibition of growth at 10 µM (NCI-H226) was 17%, the inhibition of growth at 10 µM (KM12) was 15% and the inhibition of growth at 10 µM (SN12C) was 22%. It also gave an inhibition of growth at 10 µM (EKVX) of 33%, an inhibition of growth at 10 µM (M14) of 16% and an inhibition of growth at 10 µM [2] of 27%. For the same compound, the inhibition of growth at 10 µM (MCF7) was 13%, the inhibition of growth at 10 µM (NCI-H23) was 15% and the inhibition of growth at 10 µM (K562) was 20%. For the same compound, the inhibition of growth at 10 µM [3] was 20%, the inhibition of growth at 10 µM [4] was 16% and the inhibition of growth at 10 µM [5] was 27%. The inhibition of growth at 10 µM (MDA-MB-435) was 10%, the inhibition of growth at 10 µM [6] was 18% and the inhibition of growth at 10 µM [7] was 23%. It also gave an inhibition of growth at 10 µM [8] of 39%, an inhibition of growth at 10 µM [9] of 14% and an inhibition of growth at 10 µM [10] of 61%. The inhibition of growth at 10 µM [11] was 29%, the inhibition of growth at 10 µM (A498) was 66% and the inhibition of growth at 10 µM [12] was 28%. The inhibition of growth at 10 µM (786-0) was 25%, the inhibition of growth at 10 µM (A549) was 17% and the inhibition of growth at 10 µM [13] was 12%. For the same compound, the inhibition of growth at 10 µM [14] was 19%, the inhibition of growth at 10 µM [15] was 13% and the inhibition of growth at 10 µM [16] was 12%. The inhibition of growth at 10 µM [17] was 14%, the inhibition of growth at 10 µM [18] was 26% and the inhibition of growth at 10 µM (NCI-H522) was 21%. For the same compound, the inhibition of growth at 10 µM [19] was 64%, the inhibition of growth at 10 µM [20] was 20% and the inhibition of growth at 10 µM (MDA-MB-231) was 34%. The inhibition of growth at 10 µM [21] was 29%, the inhibition of growth at 10 µM (ACHN) was 15% and the inhibition of growth at 10 µM (T47D) was 28%. The inhibition of growth at 10 µM [22] was 21%, the inhibition of growth at 10 µM [23] was 21% and the inhibition of growth at 10 µM (U-251) was 18%. It also gave an inhibition of growth at 10 µM [24] of 60%.
